As a reminder, the pEC50 is the EC50 on a negative log10 scale, so that one unit is a factor of ten. One may read the Emax as the size of the effect at its maximum, as opposed to the concentration needed.

pEC50: −log10 of the molar value.

The source of these data is ChEMBL document CHEMBL4364331, “Identification of CB1 Receptor Allosteric Sites Using Force-Biased MMC Simulated Annealing and Validation by Structure-Activity Relationship Studies” (ACS Med Chem Lett, 2019).

In assay [1] the target is T1, Cannabinoid receptor 1 (Homo sapiens, UniProt P21554). The experiment in a line: Positive allosteric modulatory activity at human CB1R expressed in CHO-K1 cells assessed as CP55940-induced cAMP level by hit-hunter cAMP assay. Type of assay: functional, cell-based. In general terms: cAMP levels reflect the balance of adenylyl cyclase and phosphodiesterase activity.
T1 sequence (P21554 whole entry): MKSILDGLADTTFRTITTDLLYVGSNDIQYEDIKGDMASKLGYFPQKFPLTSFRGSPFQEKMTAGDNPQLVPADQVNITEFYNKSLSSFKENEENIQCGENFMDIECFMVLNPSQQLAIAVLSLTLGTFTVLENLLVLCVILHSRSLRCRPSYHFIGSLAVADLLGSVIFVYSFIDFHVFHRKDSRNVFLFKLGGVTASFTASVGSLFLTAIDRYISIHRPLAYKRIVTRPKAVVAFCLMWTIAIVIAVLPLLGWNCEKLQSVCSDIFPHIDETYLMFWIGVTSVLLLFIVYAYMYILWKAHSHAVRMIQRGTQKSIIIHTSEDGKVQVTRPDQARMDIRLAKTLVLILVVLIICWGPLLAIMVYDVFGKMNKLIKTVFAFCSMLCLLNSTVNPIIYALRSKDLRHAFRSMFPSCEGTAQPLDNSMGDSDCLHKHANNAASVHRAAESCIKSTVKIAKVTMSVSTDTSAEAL
Assay [2] addresses T1, Cannabinoid receptor 1. The experiment in a line: Positive allosteric modulatory activity at human CB1R expressed in CHO-K1 cells assessed as CP55940-induced cAMP level by hit-hunter cAMP assay relative to control. The assay is classed as functional, cell-based.
Assay [3] deals with Cannabinoid receptor 1 (Mus musculus, UniProt P47746). The experiment in a line: Positive allosteric modulatory activity at mouse CB1R expressed in CHO-K1 cells assessed as CP55940-induced beta-arrestin2 recruitment by pathhunter beta-arrestin assay. The assay is classed as cell-based. On the technique in general: Arrestin recruitment assays detect the binding of arrestin to an activated receptor.
Chain of Cannabinoid receptor 1 (Mus musculus, UniProt P47746) (P47746 whole entry): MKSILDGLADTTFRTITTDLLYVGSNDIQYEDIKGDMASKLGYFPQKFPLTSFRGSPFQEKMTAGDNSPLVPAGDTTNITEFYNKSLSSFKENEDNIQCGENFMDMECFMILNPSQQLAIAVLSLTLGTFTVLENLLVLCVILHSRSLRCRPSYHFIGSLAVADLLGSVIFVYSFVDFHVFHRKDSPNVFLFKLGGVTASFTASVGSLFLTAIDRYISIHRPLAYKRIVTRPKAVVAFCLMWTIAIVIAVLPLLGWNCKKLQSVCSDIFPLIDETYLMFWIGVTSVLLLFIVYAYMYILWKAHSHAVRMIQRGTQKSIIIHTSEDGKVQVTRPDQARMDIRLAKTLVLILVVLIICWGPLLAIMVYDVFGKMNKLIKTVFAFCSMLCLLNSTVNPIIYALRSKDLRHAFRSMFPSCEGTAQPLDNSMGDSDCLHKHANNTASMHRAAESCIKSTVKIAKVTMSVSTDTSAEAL

Assay [4] deals with Cannabinoid receptor 1 (Mus musculus) (UniProt P47746). The experiment in a line: Positive allosteric modulatory activity at mouse CB1R expressed in CHO-K1 cells assessed as CP55940-induced beta-arrestin2 recruitment by pathhunter beta-arrestin assay relative to control. Type of assay: cell-based.
Chain of Cannabinoid receptor 1 (Mus musculus) (P47746 whole entry): as above

As for `O=[N+]([O-])CC(c1ccccc1)c1c(C2CCCCC2)[nH]c2ccccc12` (stereo unspecified), the pEC50 on Cannabinoid receptor 1 [1] was 6.00; at Cannabinoid receptor 1 [3], below 5.00. Moreover, the Emax on Cannabinoid receptor 1 [2] was 121%; in assay [4], 0%.
The like results for `O=[N+]([O-])CC(c1ccccc1)c1c[nH]c2ccccc12` (stereo unspecified) were, in that order, below 5.00, below 5.00, 0% and 0%.
As to `O=[N+]([O-])CC(c1ccccc1)c1cc[nH]c1-c1ccccc1` (stereo unspecified), the pEC50 at Cannabinoid receptor 1 [1] and at Cannabinoid receptor 1 [3] was below 5.00 throughout. Moreover, the Emax (at Cannabinoid receptor 1 [2]; in assay [4]) was 0% in each case.
As to `O=[N+]([O-])CC(c1ccccc1)c1c(-c2ccccc2)[nH]c2ccccc12` (stereo unspecified), the results for the Emax (on Cannabinoid receptor 1 [2]; in assay [4]) were 110% and 46%, respectively. Further, at Cannabinoid receptor 1 [3], the pEC50 is 6.03.
`Cn1c(-c2ccccc2)c(C(C[N+](=O)[O-])c2ccccc2)c2ccccc21` (stereo unspecified): the pEC50 on Cannabinoid receptor 1 [1] and on Cannabinoid receptor 1 [3] was below 5.00 each time. In addition, the Emax (on Cannabinoid receptor 1 [2]; in assay [4]) was 0% each time.
`O=[N+]([O-])CC(c1ccccc1)c1cn(-c2ccccc2)c2ccccc12` (stereo unspecified): the pEC50 on Cannabinoid receptor 1 [1] and on Cannabinoid receptor 1 [3] was below 5.00 throughout. Further, the Emax (at Cannabinoid receptor 1 [2]; in assay [4]) was 0% throughout.
Regarding `NCC(c1ccccc1)c1c(-c2ccccc2)[nH]c2ccccc12` (stereo unspecified), the pEC50 at Cannabinoid receptor 1 [1] and on Cannabinoid receptor 1 [3] was below 5.00 in each case. Also, the Emax (at Cannabinoid receptor 1 [2]; in assay [4]) was 12% each time.
On to `O=[N+]([O-])CCc1c(-c2ccccc2)[nH]c2ccccc12`, for which the pEC50 on Cannabinoid receptor 1 [1] was 5.26; at Cannabinoid receptor 1 [3], below 5.00. The Emax at Cannabinoid receptor 1 [2] came to 85%; in assay [4], 0%.
